The values below come from PMC7523589 (Analytical methods : advancing methods and applications, 2020).

As usually defined, the IC50 is the concentration needed to halve the response being measured. One may read the Kd as the constant that tells how readily two partners part at equilibrium. The low end stands for a tighter complex, the high end for a looser complex.

Experiment [1] has as its target T1, Plk1 (Homo sapiens, UniProt P53350). The settings on record: read-out: Reported Plk1 IC50 values; cited from earlier work.
Experiment [2] concerns the target full-length Plk1 (Homo sapiens, UniProt P53350). Briefly: fluorescence recovery assay, competition of inhibitors with probe 4. It is filed as binding.
In experiment [3] the target is T1, Plk1. Briefly: fluorescence recovery assay, probe binding as a function of Plk1 concentration.

T1 sequence (P53350 whole entry): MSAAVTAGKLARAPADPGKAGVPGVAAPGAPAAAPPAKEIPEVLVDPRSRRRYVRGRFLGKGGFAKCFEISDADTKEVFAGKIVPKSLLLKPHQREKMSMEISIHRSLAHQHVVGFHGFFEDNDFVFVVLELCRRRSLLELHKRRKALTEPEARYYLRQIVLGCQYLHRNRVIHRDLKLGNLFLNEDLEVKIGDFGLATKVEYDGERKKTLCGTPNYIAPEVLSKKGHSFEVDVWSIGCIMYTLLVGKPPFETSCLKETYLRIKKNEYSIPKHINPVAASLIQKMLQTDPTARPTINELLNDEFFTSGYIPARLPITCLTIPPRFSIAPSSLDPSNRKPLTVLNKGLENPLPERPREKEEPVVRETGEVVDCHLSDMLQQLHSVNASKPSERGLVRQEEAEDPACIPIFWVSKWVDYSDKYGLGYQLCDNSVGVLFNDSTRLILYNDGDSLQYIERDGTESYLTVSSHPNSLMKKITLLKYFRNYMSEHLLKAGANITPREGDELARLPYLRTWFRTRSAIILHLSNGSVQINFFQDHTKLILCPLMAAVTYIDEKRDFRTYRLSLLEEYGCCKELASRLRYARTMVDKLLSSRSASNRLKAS
Chain of full-length Plk1 (P53350 whole entry): as above

On to SBE13, for which the IC50 in experiment [1] is 0.2 nM.
Turning to `CC[C@@H]1C(=O)N(C)c2cnc(Nc3ccc(C(=O)N[C@H]4CC[C@H](N5CCN(CC6CC6)CC5)CC4)cc3OC)nc2N1C(C)C` [BI6727], the IC50 in experiment [2] stood at 31 ± 0.67 nM.
As to FITC-PEG-Lys(BI2536) [compound 4], the equilibrium dissociation constant (Kd) in experiment [3] (10 nM of probe 4) is 32 ± 0.78 nM; in experiment [3] (20 nM of probe 4), 33 ± 0.98 nM; in experiment [3] (30 nM of probe 4) it was 32 ± 1.1 nM; in experiment [3] (40 nM of probe 4), 38 ± 1.8 nM; in experiment [3] (incubation time 15 minutes) it was 42 ± 1.5 nM; in experiment [3] (incubation time 30 minutes) it was 34 ± 1.1 nM. In addition, the affinity in experiment [3] (incubation time 60 minutes), expressed as Kd, was 32 ± 1.5 nM.
